Measurements: the supplement of paper PMC10307832

Experiments:
Experiment in all cases: relative viability (nuclei count vs DMSO), 5 days (fraction); higher = more cells survive
HCC-15 = system: HCC-15
Outline: (§1)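 Lung cancer cell lines, seeded in 1536-well plates, were treated the following day by pin tool with a single drug or with five library-drug doses (not always all listed) in √10 steps on top of a fixed anchor-drug dose. Cells were fixed and nuclei stained in one step after 5 days, and nuclei were counted. Relative viability is the nuclei count for treated wells divided by that for vehicle wells, reported as medians of duplicate plates.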

COR-L 105 = system: COR-L 105
Outline: as §1

HCC-366 = system: HCC-366
Outline: as §1

EKVX = system: EKVX
Outline: as §1

NCI-H1975 = system: NCI-H1975
Outline: as §1

LXF-289 = system: LXF-289
Outline: as §1

BEN = system: BEN
Outline: as §1

NCI-H1755 = system: NCI-H1755
Outline: as §1

HARA = system: HARA
Outline: as §1

201T = system: 201T
Outline: as §1

NCI-H1703 = system: NCI-H1703
Outline: as §1

LU99A = system: LU99A
Outline: as §1

NCI-H1734 = system: NCI-H1734
Outline: as §1

NCI-H1993 = system: NCI-H1993
Outline: as §1

NCI-H1650 = system: NCI-H1650
Outline: as §1

HCC-78 = system: HCC-78
Outline: as §1

SK-LU-1 = system: SK-LU-1
Outline: as §1

COR-L23 = system: COR-L23
Outline: as §1

NCI-H1944 = system: NCI-H1944
Outline: as §1

HCC-827 = system: HCC-827
Outline: as §1

NCI-H3122 = system: NCI-H3122
Outline: as §1

NCI-H596 = system: NCI-H596
Outline: as §1

For CCCCCCCCCCCC1=C(O)C(=O)C=C(O)C1=O [Embelin] + CS(=O)(=O)N1CCN(Cc2cc3nc(-c4cccc5[nH]ncc45)nc(N4CCOCC4)c3s2)CC1 [Pictilisib] (partner 1 µM), the relative viability (HCC-15; first compound 0.08 µM) was 0.736, the relative viability (HCC-15; first compound 0.8 µM) was 0.802 and the relative viability (HCC-15; first compound 2.53 µM) was 0.85. For the same compound, the relative viability (HCC-15; first compound 8 µM) was 0.743, the relative viability (COR-L 105; first compound 0.08 µM) was 0.338 and the relative viability (COR-L 105; first compound 0.8 µM) was 0.484. It also gave a relative viability (COR-L 105; first compound 2.53 µM) of 0.424, a relative viability (COR-L 105; first compound 8 µM) of 0.392 and a relative viability (HCC-366; first compound 0.08 µM) of 0.151. It also gave a relative viability (HCC-366; first compound 0.8 µM) of 0.203, a relative viability (HCC-366; first compound 2.53 µM) of 0.149 and a relative viability (HCC-366; first compound 8 µM) of 0.127. It also gave a relative viability (EKVX; first compound 0.08 µM) of 0.481, a relative viability (EKVX; first compound 0.8 µM) of 0.437 and a relative viability (EKVX; first compound 2.53 µM) of 0.406. For the same compound, the relative viability (EKVX; first compound 8 µM) was 0.501, the relative viability (NCI-H1975; first compound 0.08 µM) was 0.343 and the relative viability (NCI-H1975; first compound 0.8 µM) was 0.332. It also gave a relative viability (NCI-H1975; first compound 2.53 µM) of 0.288, a relative viability (NCI-H1975; first compound 8 µM) of 0.288 and a relative viability (LXF-289; first compound 0.08 µM) of 0.855. It also gave a relative viability (LXF-289; first compound 0.8 µM) of 0.794, a relative viability (LXF-289; first compound 2.53 µM) of 0.75 and a relative viability (LXF-289; first compound 8 µM) of 0.819. The relative viability (BEN; first compound 0.08 µM) was 0.583, the relative viability (BEN; first compound 0.8 µM) was 0.704 and the relative viability (BEN; first compound 2.53 µM) was 0.743. It also gave a relative viability (BEN; first compound 8 µM) of 0.556, a relative viability (NCI-H1755; first compound 0.08 µM) of 0.502 and a relative viability (NCI-H1755; first compound 0.8 µM) of 0.499. For the same compound, the relative viability (NCI-H1755; first compound 2.53 µM) was 0.367, the relative viability (NCI-H1755; first compound 8 µM) was 0.333 and the relative viability (HARA; first compound 0.08 µM) was 0.604. For the same compound, the relative viability (HARA; first compound 0.8 µM) was 0.586, the relative viability (HARA; first compound 2.53 µM) was 0.489 and the relative viability (HARA; first compound 8 µM) was 0.653. It also gave a relative viability (201T; first compound 0.08 µM) of 0.645, a relative viability (201T; first compound 0.8 µM) of 0.685 and a relative viability (201T; first compound 2.53 µM) of 0.649. The relative viability (201T; first compound 8 µM) was 0.613, the relative viability (NCI-H1703; first compound 0.08 µM) was 0.232 and the relative viability (NCI-H1703; first compound 0.8 µM) was 0.315. The relative viability (NCI-H1703; first compound 2.53 µM) was 0.241, the relative viability (NCI-H1703; first compound 8 µM) was 0.232 and the relative viability (LU99A; first compound 0.08 µM) was 0.393. The relative viability (LU99A; first compound 0.8 µM) was 0.334, the relative viability (LU99A; first compound 2.53 µM) was 0.357 and the relative viability (LU99A; first compound 8 µM) was 0.281. For the same compound, the relative viability (NCI-H1734; first compound 0.08 µM) was 0.492, the relative viability (NCI-H1734; first compound 0.8 µM) was 0.547 and the relative viability (NCI-H1734; first compound 2.53 µM) was 0.557. For the same compound, the relative viability (NCI-H1734; first compound 8 µM) was 0.431, the relative viability (NCI-H1993; first compound 0.08 µM) was 0.729 and the relative viability (NCI-H1993; first compound 0.8 µM) was 0.733. For the same compound, the relative viability (NCI-H1993; first compound 2.53 µM) was 0.776, the relative viability (NCI-H1993; first compound 8 µM) was 0.803 and the relative viability (NCI-H1650; first compound 0.08 µM) was 0.695. For the same compound, the relative viability (NCI-H1650; first compound 0.8 µM) was 0.715, the relative viability (NCI-H1650; first compound 2.53 µM) was 0.632 and the relative viability (NCI-H1650; first compound 8 µM) was 0.504. For the same compound, the relative viability (HCC-78; first compound 0.08 µM) was 0.263, the relative viability (HCC-78; first compound 0.8 µM) was 0.216 and the relative viability (HCC-78; first compound 2.53 µM) was 0.225. The relative viability (HCC-78; first compound 8 µM) was 0.219, the relative viability (SK-LU-1; first compound 0.08 µM) was 0.676 and the relative viability (SK-LU-1; first compound 0.8 µM) was 0.667. It also gave a relative viability (SK-LU-1; first compound 2.53 µM) of 0.678, a relative viability (SK-LU-1; first compound 8 µM) of 0.541 and a relative viability (COR-L23; first compound 0.08 µM) of 0.832. The relative viability (COR-L23; first compound 0.8 µM) was 0.958, the relative viability (COR-L23; first compound 2.53 µM) was 0.874 and the relative viability (COR-L23; first compound 8 µM) was 0.93. The relative viability (NCI-H1944; first compound 0.08 µM) was 0.367, the relative viability (NCI-H1944; first compound 0.8 µM) was 0.383 and the relative viability (NCI-H1944; first compound 2.53 µM) was 0.36. It also gave a relative viability (NCI-H1944; first compound 8 µM) of 0.306, a relative viability (HCC-827; first compound 0.08 µM) of 1.03 and a relative viability (HCC-827; first compound 0.8 µM) of 1.04. The relative viability (HCC-827; first compound 2.53 µM) was 1.16, the relative viability (HCC-827; first compound 8 µM) was 1.19 and the relative viability (NCI-H3122; first compound 0.08 µM) was 0.647. It also gave a relative viability (NCI-H3122; first compound 0.8 µM) of 0.605, a relative viability (NCI-H3122; first compound 2.53 µM) of 0.755 and a relative viability (NCI-H3122; first compound 8 µM) of 0.616. For the same compound, the relative viability (NCI-H596; first compound 0.08 µM) was 0.389, the relative viability (NCI-H596; first compound 0.8 µM) was 0.432 and the relative viability (NCI-H596; first compound 2.53 µM) was 0.481. The relative viability (NCI-H596; first compound 8 µM) was 0.357.
